Test results taken from US4714619A, “Aminomalonyl alanine compounds as dietary sweeteners” (priority 1986, dated 1987).
Entries after “also recorded” stand apart in the source; their conditions may differ. Where two headings read alike, the source gives them in different places.

How the values were obtained:
[1] = neonatal mice; cited from earlier work
[2] = monkeys; cited from earlier work
[3] = cited from earlier work
[4] = Stability in aqueous solution (hplc, ambient temperature); assay type: physicochemical; conditions: for degraded at 864 h: 0.05m phosphate buffer, ambient temperature, read-out: degradation
Description: Stability was examined in aqueous solution at various pHs. Solutions (1% w/v) were prepared in 0.05M phosphate buffer adjusted to pH 7.4 and pH 3.5. Storage at ambient temperature over 36 days was monitored by hplc analysis (waters radial-pak reverse phase C-8 column, 25% CH3 CN, 0.05% TFA/H2 O eluant, 210 nm U.V. detection). Aspartame was examined similarly for comparison purposes.

five Salmonella strains = experiment: Ames/Salmonella mutagenicity assay; assay type: cell-based; conditions: 0.3-3000 ug/plate, with and without S9; toxicity at the two highest doses
Description: The isopropyl ester was tested for mutuagenic potential in the Ames assay employing: (1) five Salmonella strains which detect frameshift mutagens or base-pair substitution mutagens, (2) both the presence and absence of mammalian S9 microsomal liver fraction as the metabolic activator, which differentiate promutagens from direct-acting mutagens, (3) five dose levels (3000, 300, 30, 3, 0.3 ug/plate), and (4) three plates per dose. The compound was also tested for toxicity, with and without S9 activation, at the two highest doses. […] Positive controls and spontaneous background revertants were within acceptable ranges.

[5] = Comparative taste test, D- versus L-configuration (Table 2, FIG. 3); design: Sweet? (average score) / Bitter? (average score) / Salty? (average score) / Off Taste? (average score) / After Taste? (average score): scale not given here
Description: The compounds were dissolved in distilled water at the concentrations specified in Table 2. Solutions were made up and kept overnight in a refrigerator. The following day, they were poured into individual graduated plastic cups (10 ml per cup) and allowed to warm to room temperature. A taste panel was convened and testing begun that same day. Tasting and evaluation was done by the standard protocol developed by Dr. Robert Gesteland of Taste and Smell Consulting Group, Inc.
The first solution tasted (reference standard for the panel) was 0.25M sucrose. Other solutions were tasted in radomized fashion. The random order was arrived at as follows:
i. An ordered list of the compounds and concentrations was prepared (26 solutions in all).
ii. 0.25M sucrose was designated as 1.
iii. A standard table of random numbers was used in which the numbers were grouped as two-digit numbers. A point in the table was chosen at random (blind pointing). The first solution in the list was given the first random number in the sequence (read right-to-left, up-to-down) which is between 2 and 26. The second solution in the list was given the next random number in the sequence between 2 and 26, etc. Repeat numbers were ignored.
iv. Solutions were then labeled A (for number 1) B (for random number 2), C-Z.
v. Panelists were instructed to taste the solutions in alphabetical order.
With the assistance of Taste and Smell Consulting Group, Inc., taste panel members were trained adn tested for their ability to discriminate sucrose solutions of varying concentrations. In summary it may be stated that all 9 panel members had acceptble correlation scores. Their results were in good agreement with those which have been previously reported in siilar types of studies. For the test series the correlations for each panelist for sucrose and aspartame were acceptable as were the overall results obtained by averaging individual scores. The results of the taste panel are set forth in Table 2 wherein the parenthetical figures represent the standard error values for the number above.

[6] = Taste panel (Table 1, FIG. 2); conditions: for After Taste? (average score) / Bitter? (average score) / Off Taste? (average score) / Pleasant? (average score) / Salty? (average score) / Sweet? (average score): normalized to 100
[7] = Acute oral toxicity testing; assay type: in vivo, Swiss male mice
Description: The isopropyl ester was evaluated for acute oral toxicity in Swiss male mice. The testing parameters were as follows: each test group contained six mice (20-30 grams each); the isopropyl ester was administered in an aqueous solution as a single oral dose of 100 mg/kg and 300 mg/kg; two solvent controls were also administered; the mice were again given food two hours after sample administration.
Body weights were measured on day -3, 0, +7 and +14. Physiological parameters were examined the entire first day, then three times a day through the first week and twice a day for the second week. Blood serum analyses for urea nitrogen and alanine aminotransferase activities were measured on day -3 and day +14. On day 14, a gross necropsy was performed on each mouse.
Blood samples were collected from the tail vein for biochemical testing of serum samples. This procedure virtually eliminated hemolyzed samples.

[8] = single oral dose 100 and 300 mg/kg, 14 days

For `N[C@@H](CC(=O)O)C(=O)O` [aspartic acid], the brain lesions [1] is given as “causes brain lesions in neonatal mice”.
In the case of `N[C@@H](Cc1ccccc1)C(=O)O` [phenylalanine], the grand mal-type seizures [2] is listed as “reported to induce grand mal-type seizures in monkeys”, the “behavioral changes and brain chemistry” value ([3]; in vivo) is listed as “induce behavioral changes, and alter brain chemistry” and the birth defects ([3]; pregnant women with phenylketonuria) is listed as “produce birth defects in pregnant women with phenylketonuria”.
With `CC(C)OC(=O)[C@@H](C)NC(=O)C(N)C(=O)O` (mixture of isomers) [Compound (8), DL-Aminomalonyl-D-Alanine Isopropyl Ester] the degraded at 864 h ([4]; pH 3.5, 36 days) was < 5%, the degraded at 864 h ([4]; pH 7.4 buffer, 36 days) was 70% and the “improvement in stability relative to aspartame” value ([4]; pH 3.5, 36 days) was “ten fold improvement in stability”. For the same compound, the “mutagenic potential and toxicity in Ames assay” value (five Salmonella strains) was “neither mutagenic potential nor toxicity”, the “sweet taste (words)” value [5] was “sweet” and the “After Taste? (average score)” value ([5]; 0.0431 Millimolar) was 0. The “Bitter? (average score)” value ([5]; 0.0431 Millimolar) was 1, the “Off Taste? (average score)” value ([5]; 0.0431 Millimolar) was 2 and the “Pleasant? (average score)” value ([5]; 0.0431 Millimolar) was 15. The “Salty? (average score)” value ([5]; 0.0431 Millimolar) was 1, the “Sweet? (average score)” value ([5]; 0.0431 Millimolar) was 2 and the “After Taste? (average score)” value ([5]; 0.4307 Millimolar) was 7. The “Bitter? (average score)” value ([5]; 0.4307 Millimolar) was 12, the “Off Taste? (average score)” value ([5]; 0.4307 Millimolar) was 8 and the “Pleasant? (average score)” value ([5]; 0.4307 Millimolar) was 10. For the same compound, the “Salty? (average score)” value ([5]; 0.4307 Millimolar) was 11, the “Sweet? (average score)” value ([5]; 0.4307 Millimolar) was 1 and the “After Taste? (average score)” value ([5]; 4.3066 Millimolar) was 5. For the same compound, the “Bitter? (average score)” value ([5]; 4.3066 Millimolar) was 0, the “Off Taste? (average score)” value ([5]; 4.3066 Millimolar) was 3 and the “Pleasant? (average score)” value ([5]; 4.3066 Millimolar) was 24. The “Salty? (average score)” value ([5]; 4.3066 Millimolar) was 12, the “Sweet? (average score)” value ([5]; 4.3066 Millimolar) was 28 and the “After Taste? (average score)” value ([6]; 0.8621 Millimolar) was 4. For the same compound, the “Bitter? (average score)” value ([6]; 0.8621 Millimolar) was 7, the “Off Taste? (average score)” value ([6]; 0.8621 Millimolar) was 13 and the “Pleasant? (average score)” value ([6]; 0.8621 Millimolar) was -11. The “Salty? (average score)” value ([6]; 0.8621 Millimolar) was 21, the “Sweet? (average score)” value ([6]; 0.8621 Millimolar) was 4 and the “After Taste? (average score)” value ([6]; 3.0172 Millimolar) was 6. For the same compound, the “Bitter? (average score)” value ([6]; 3.0172 Millimolar) was 3, the “Off Taste? (average score)” value ([6]; 3.0172 Millimolar) was 2 and the “Pleasant? (average score)” value ([6]; 3.0172 Millimolar) was 13. For the same compound, the “Salty? (average score)” value ([6]; 3.0172 Millimolar) was 5, the “Sweet? (average score)” value ([6]; 3.0172 Millimolar) was 32 and the “After Taste? (average score)” value ([6]; 9.0517 Millimolar) was 4. For the same compound, the “Bitter? (average score)” value ([6]; 9.0517 Millimolar) was 1, the “Off Taste? (average score)” value ([6]; 9.0517 Millimolar) was 3 and the “Pleasant? (average score)” value ([6]; 9.0517 Millimolar) was 34. The “Salty? (average score)” value ([6]; 9.0517 Millimolar) was 3, the “Sweet? (average score)” value ([6]; 9.0517 Millimolar) was 61 and the “aftertaste / side tastes” value ([6]; compared to saccharin) was “does not possess a "metallic" aftertaste, and there are virtually no detracting side tastes”. The “sweetness potency (reciprocal of concentration required for a score of 50)” value ([6]; sucrose=1.0, weight scale) was 58, the “onset and decay of sweet taste” value ([6]; taste panel) was “rapid onset and a rapid decay of sweet taste” and the “taste quality” value ([6]; taste panel) was “uncommon sucrose-like sweet taste that is free of detracting side and after tastes; also recorded: sweet and pleasant”. For the same compound, the “sweetness relative to aspartame” value ([6]; weight basis) was “about half as sweet as aspartame”, the “times sweeter than sucrose” value ([6]; weight basis) was 58 times and the gross necropsy ([7]; day 14, 100 and 300 mg/kg oral) was “No toxic effects were detected”. The “kidney and liver toxicity” value ([7]; from serum urea nitrogen and alanine aminotransferase, 100 and 300 mg/kg oral) was “absence of kidney and liver toxicity”, the “serum urea nitrogen and alanine aminotransferase activity” value ([7]; post-study samples, 100 or 300 mg/kg oral) was “Neither elevated serum urea nitrogen nor elevated alanine aminotransferase activity were detected” and the “behavioral or pharmacological effects” value ([7]; single oral dose 100 and 300 mg/kg) was “no behavioral or pharmacological effects were observed”. For the same compound, the body weights ([7]; single oral dose 100 and 300 mg/kg, 14-day study) was “normal”, the acute oral toxicity [7, 8] was “no toxic effect; also recorded: nontoxic at all doses tested” and the eating or drinking [7, 8] was “no excessive eating or drinking”.
